Source: patent US20230406885A1, “CYCLIC PEPTIDES FOR TRAPPING INTERLEUKIN-1 BETA” (MERCK SHARP & DOHME LLC, priority 2022, published 2023)
Where a SMILES comes first, the peptide text is derived from it. [ ]: non-standard residue; d: D form. The star is where a group is joined. Bip(4'-COOH) = N[C@@H](Cc1ccc(-c2ccc(C(=O)O)cc2)cc1)C(=O)O; 1Nal(3S-Me) = C[C@@H](c1cccc2ccccc12)[C@H](N)C(=O)O; Phe(4-COOH) = N[C@@H](Cc1ccc(C(=O)O)cc1)C(=O)O; h3Pal(5-CN) = N#Cc1cncc(CC[C@H](N)C(=O)O)c1; Pro(4R-NH2) = N[C@H]1CN[C@H](C(=O)O)C1; AEF = NCCOc1ccc(C[C@H](N)C(=O)O)cc1; Ethyl(2-morpholino) = C1CN(CC*)CCO1; hTyr = N[C@@H](CCc1ccc(O)cc1)C(=O)O; hPhe = N[C@@H](CCc1ccccc1)C(=O)O; dDab = NCC[C@@H](N)C(=O)O; Orn = NCCC[C@H](N)C(=O)O; dNMeA = CN[C@H](C)C(=O)O; Dab = NCC[C@H](N)C(=O)O; Dap = NC[C@H](N)C(=O)O; Aib = CC(C)(N)C(=O)O

Biological target: T1, Recombinant human IL-1β (Homo sapiens, UniProt P01584)
T1 construct: purchased BioLegend 579404
T1 sequence (P01584 117-269): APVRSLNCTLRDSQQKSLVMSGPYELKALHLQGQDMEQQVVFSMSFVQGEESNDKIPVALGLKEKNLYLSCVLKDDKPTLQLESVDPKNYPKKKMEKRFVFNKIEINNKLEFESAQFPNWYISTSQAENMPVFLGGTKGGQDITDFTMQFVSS
Test: IL-6 assay in MRC5 cells: inhibition of IL-1β induced IL-6 secretion (AlphaLISA)
Format: cell-based
Settings: inhibition of IL-1β induced IL-6 secretion in MRC5 cells; IL-1β pre-incubated 1 hour with compound; read-out: MRC5 IC50
Procedure, shortened: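 IL-1β at 2×EC80 in seeding medium (EMEM, 0.025% BSA) preincubated 1 h at ambient temperature with compound, then 3000 MRC5 cells/well added and incubated overnight at 37 °C, 5% CO2. IL-6 in conditioned medium quantified by AlphaLISA; IC50 from 4-parameter logistic fit.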

IC50 [pM]	SMILES
85	CC(=O)NCCOc1ccc(C[C@@H]2NC(=O)[C@H](CCc3ccccc3)NC(=O)[C@@H](C)NC(=O)[C@H](CCN)NC(=O)[C@H](Cc3c[nH]c4ccccc34)NC(=O)[C@H](Cc3ccc(-c4ccc(C(=O)O)cc4)cc3)NC(=O)CNC(=O)[C@@H](C)N(C)C(=O)[C@H](CC(=O)O)NC(=O)[C@H]([C@@H](C)c3cccc4ccccc34)NC(=O)[C@@H]3C[C@@H](N)CN3C(=O)CNC(=O)[C@H](Cc3ccc(C(=O)O)cc3)NC(=O)[C@H](Cc3c[nH]c4ccccc34)NC2=O)cc1 [Example 115] (cyclo([AEF](Ac)W[Phe(4-COOH)]G[Pro(4R-NH2)][1Nal(3S-Me)]D[dNMeA]G[Bip(4'-COOH)]W[Dab][dA][hPhe]))
492	CC(=O)NCCOc1ccc(C[C@@H]2NC(=O)[C@H](CCc3ccc(O)cc3)NC(=O)[C@@H](C)NC(=O)[C@H](CCN)NC(=O)[C@H](Cc3c[nH]c4ccccc34)NC(=O)[C@H](Cc3ccc(-c4ccc(C(=O)O)cc4)cc3)NC(=O)CNC(=O)[C@@H](C)N(C)C(=O)[C@H](CC(=O)O)NC(=O)[C@H]([C@@H](C)c3cccc4ccccc34)NC(=O)[C@@H]3C[C@@H](N)CN3C(=O)CNC(=O)[C@H](Cc3ccc(C(=O)O)cc3)NC(=O)[C@H](Cc3c[nH]c4ccccc34)NC2=O)cc1 [Example 116] (cyclo([AEF](Ac)W[Phe(4-COOH)]G[Pro(4R-NH2)][1Nal(3S-Me)]D[dNMeA]G[Bip(4'-COOH)]W[Dab][dA][hTyr]))

Same assay, conditions: inhibition of IL-1β induced IL-6 secretion in MRC5 cells; read-out: MRC5 IC50

SMILES	IC50 [pM]
CC(=O)NCCOc1ccc(C[C@@H]2NC(=O)[C@H](CCc3ccc(O)cc3)NC(=O)C(C)(C)NC(=O)[C@H](CN)NC(=O)[C@H](Cc3c[nH]c4ccccc34)NC(=O)[C@H](Cc3ccc(-c4ccc(C(=O)O)cc4)cc3)NC(=O)CNC(=O)[C@@H](C)N(C)C(=O)[C@H](CC(=O)O)NC(=O)[C@H]([C@@H](C)c3cccc4ccccc34)NC(=O)[C@@H]3C[C@@H](N)CN3C(=O)CNC(=O)[C@H](Cc3ccc(C(=O)O)cc3)NC(=O)[C@H](Cc3c[nH]c4ccccc34)NC2=O)cc1 [Example 117] (cyclo([AEF](Ac)W[Phe(4-COOH)]G[Pro(4R-NH2)][1Nal(3S-Me)]D[dNMeA]G[Bip(4'-COOH)]W[Dap][Aib][hTyr]))	160
CC(=O)NCCOc1ccc(C[C@@H]2NC(=O)[C@H](C)NC(=O)[C@@H](C)NC(=O)[C@H](CN)NC(=O)[C@H](Cc3c[nH]c4ccccc34)NC(=O)[C@H](Cc3ccc(-c4ccc(C(=O)O)cc4)cc3)NC(=O)CNC(=O)[C@@H](C)N(C)C(=O)[C@H](CC(=O)O)NC(=O)[C@H]([C@@H](C)c3cccc4ccccc34)NC(=O)[C@@H]3C[C@@H](N)CN3C(=O)CNC(=O)[C@H](Cc3ccc(C(=O)O)cc3)NC(=O)[C@H](Cc3c[nH]c4ccccc34)NC2=O)cc1 [Example 118] (cyclo([AEF](Ac)W[Phe(4-COOH)]G[Pro(4R-NH2)][1Nal(3S-Me)]D[dNMeA]G[Bip(4'-COOH)]W[Dap][dA]A))	973
CC(=O)NCCOc1ccc(C[C@@H]2NC(=O)[C@H](Cc3ccc(OCCN4CCOCC4)cc3)NC(=O)[C@@H](C)NC(=O)[C@H](CN)NC(=O)[C@H](Cc3c[nH]c4ccccc34)NC(=O)[C@H](Cc3ccc(-c4ccc(C(=O)O)cc4)cc3)NC(=O)CNC(=O)[C@@H](C)N(C)C(=O)[C@H](CC(=O)O)NC(=O)[C@H]([C@@H](C)c3cccc4ccccc34)NC(=O)[C@@H]3C[C@@H](N)CN3C(=O)CNC(=O)[C@H](Cc3ccc(C(=O)O)cc3)NC(=O)[C@H](Cc3c[nH]c4ccccc34)NC2=O)cc1 [Example 120] (cyclo([AEF](Ac)W[Phe(4-COOH)]G[Pro(4R-NH2)][1Nal(3S-Me)]D[dNMeA]G[Bip(4'-COOH)]W[Dap][dA]Y(Ethyl(2-morpholino))))	860
CC(=O)NCCOc1ccc(C[C@@H]2NC(=O)[C@H](CCc3cncc(C#N)c3)NC(=O)[C@@H](CCN)NC(=O)CNC(=O)[C@H](Cc3c[nH]c4ccccc34)NC(=O)[C@H](Cc3ccc(-c4ccc(C(=O)O)cc4)cc3)NC(=O)CNC(=O)[C@@H](C)N(C)C(=O)[C@H](CC(=O)O)NC(=O)[C@H]([C@@H](C)c3cccc4ccccc34)NC(=O)[C@@H]3C[C@@H](N)CN3C(=O)CNC(=O)[C@H](Cc3ccc(C(=O)O)cc3)NC(=O)[C@H](Cc3c[nH]c4ccccc34)NC2=O)cc1 [Example 122] (cyclo([AEF](Ac)W[Phe(4-COOH)]G[Pro(4R-NH2)][1Nal(3S-Me)]D[dNMeA]G[Bip(4'-COOH)]WG[dDab][h3Pal(5-CN)]))	24.8
CC(=O)NCCOc1ccc(C[C@@H]2NC(=O)[C@H](C)NC(=O)[C@@H](C)NC(=O)[C@H](CC(C)C)NC(=O)[C@H](Cc3c[nH]c4ccccc34)NC(=O)[C@H](Cc3ccc(-c4ccc(C(=O)O)cc4)cc3)NC(=O)CNC(=O)[C@@H](C)N(C)C(=O)[C@H](CC(=O)O)NC(=O)[C@H]([C@@H](C)c3cccc4ccccc34)NC(=O)[C@@H]3C[C@@H](N)CN3C(=O)CNC(=O)[C@H](Cc3ccc(C(=O)O)cc3)NC(=O)[C@H](Cc3c[nH]c4ccccc34)NC2=O)cc1 [Example 124] (cyclo([AEF](Ac)W[Phe(4-COOH)]G[Pro(4R-NH2)][1Nal(3S-Me)]D[dNMeA]G[Bip(4'-COOH)]WL[dA]A))	636

Now from value to compound:

IC50 [pM]	SMILES
60.2	CC(=O)NCCOc1ccc(C[C@@H]2NC(=O)[C@H](CCc3ccc(O)cc3)NC(=O)[C@@H](C)NC(=O)[C@H](CN)NC(=O)[C@H](Cc3c[nH]c4ccccc34)NC(=O)[C@H](Cc3ccc(-c4ccc(C(=O)O)cc4)cc3)NC(=O)CNC(=O)[C@@H](C)N(C)C(=O)[C@H](CC(=O)O)NC(=O)[C@H]([C@@H](C)c3cccc4ccccc34)NC(=O)[C@@H]3C[C@@H](N)CN3C(=O)CNC(=O)[C@H](Cc3ccc(C(=O)O)cc3)NC(=O)[C@H](Cc3c[nH]c4ccccc34)NC2=O)cc1 [Example 119] (cyclo([AEF](Ac)W[Phe(4-COOH)]G[Pro(4R-NH2)][1Nal(3S-Me)]D[dNMeA]G[Bip(4'-COOH)]W[Dap][dA][hTyr]))
85	CC(=O)NCCOc1ccc(C[C@@H]2NC(=O)[C@H](CCc3ccc(O)cc3)NC(=O)[C@@H](C)N(C)C(=O)[C@H](CN)NC(=O)[C@H](Cc3c[nH]c4ccccc34)NC(=O)[C@H](Cc3ccc(-c4ccc(C(=O)O)cc4)cc3)NC(=O)CNC(=O)[C@@H](C)N(C)C(=O)[C@H](CC(=O)O)NC(=O)[C@H]([C@@H](C)c3cccc4ccccc34)NC(=O)[C@@H]3C[C@@H](N)CN3C(=O)CNC(=O)[C@H](Cc3ccc(C(=O)O)cc3)NC(=O)[C@H](Cc3c[nH]c4ccccc34)NC2=O)cc1 [Example 121] (cyclo([AEF](Ac)W[Phe(4-COOH)]G[Pro(4R-NH2)][1Nal(3S-Me)]D[dNMeA]G[Bip(4'-COOH)]W[Dap][dNMeA][hTyr]))
45.7	CC(=O)NCCOc1ccc(C[C@@H]2NC(=O)[C@H](CCc3ccc(O)cc3)NC(=O)[C@@H](CCN)NC(=O)CNC(=O)[C@H](Cc3c[nH]c4ccccc34)NC(=O)[C@H](Cc3ccc(-c4ccc(C(=O)O)cc4)cc3)NC(=O)CNC(=O)[C@@H](C)N(C)C(=O)[C@H](CC(=O)O)NC(=O)[C@H]([C@@H](C)c3cccc4ccccc34)NC(=O)[C@@H]3C[C@@H](N)CN3C(=O)CNC(=O)[C@H](Cc3ccc(C(=O)O)cc3)NC(=O)[C@H](Cc3c[nH]c4ccccc34)NC2=O)cc1 [Example 123] (cyclo([AEF](Ac)W[Phe(4-COOH)]G[Pro(4R-NH2)][1Nal(3S-Me)]D[dNMeA]G[Bip(4'-COOH)]WG[dDab][hTyr]))
64	CC(=O)NCCOc1ccc(C[C@@H]2NC(=O)[C@H](CCc3ccc(O)cc3)NC(=O)[C@@H](C)NC(=O)[C@H](CC(C)C)NC(=O)[C@H](Cc3c[nH]c4ccccc34)NC(=O)[C@H](Cc3ccc(-c4ccc(C(=O)O)cc4)cc3)NC(=O)CNC(=O)[C@@H](C)N(C)C(=O)[C@H](CC(=O)O)NC(=O)[C@H]([C@@H](C)c3cccc4ccccc34)NC(=O)[C@@H]3C[C@@H](N)CN3C(=O)CNC(=O)[C@H](Cc3ccc(C(=O)O)cc3)NC(=O)[C@H](Cc3c[nH]c4ccccc34)NC2=O)cc1 [Example 125] (cyclo([AEF](Ac)W[Phe(4-COOH)]G[Pro(4R-NH2)][1Nal(3S-Me)]D[dNMeA]G[Bip(4'-COOH)]WL[dA][hTyr]))
370	CC(=O)NCCOc1ccc(C[C@@H]2NC(=O)[C@H](CCc3ccc(O)cc3)NC(=O)[C@@H](CCN)NC(=O)[C@H](CC(C)C)NC(=O)[C@H](Cc3c[nH]c4ccccc34)NC(=O)[C@H](Cc3ccc(-c4ccc(C(=O)O)cc4)cc3)NC(=O)CNC(=O)[C@@H](C)N(C)C(=O)[C@H](CC(=O)O)NC(=O)[C@H]([C@@H](C)c3cccc4ccccc34)NC(=O)[C@@H]3C[C@@H](N)CN3C(=O)CNC(=O)[C@H](Cc3ccc(C(=O)O)cc3)NC(=O)[C@H](Cc3c[nH]c4ccccc34)NC2=O)cc1 [Example 126] (cyclo([AEF](Ac)W[Phe(4-COOH)]G[Pro(4R-NH2)][1Nal(3S-Me)]D[dNMeA]G[Bip(4'-COOH)]WL[dDab][hTyr]))
432	CC(=O)NCCOc1ccc(C[C@@H]2NC(=O)[C@H](CCc3ccc(O)cc3)NC(=O)C(C)(C)NC(=O)[C@H](CCCN)NC(=O)[C@H](Cc3c[nH]c4ccccc34)NC(=O)[C@H](Cc3ccc(-c4ccc(C(=O)O)cc4)cc3)NC(=O)CNC(=O)[C@@H](C)N(C)C(=O)[C@H](CC(=O)O)NC(=O)[C@H]([C@@H](C)c3cccc4ccccc34)NC(=O)[C@@H]3C[C@@H](N)CN3C(=O)CNC(=O)[C@H](Cc3ccc(C(=O)O)cc3)NC(=O)[C@H](Cc3c[nH]c4ccccc34)NC2=O)cc1 [Example 127] (cyclo([AEF](Ac)W[Phe(4-COOH)]G[Pro(4R-NH2)][1Nal(3S-Me)]D[dNMeA]G[Bip(4'-COOH)]W[Orn][Aib][hTyr]))
90	CC(=O)NCCOc1ccc(C[C@@H]2NC(=O)[C@H](CCc3ccc(O)cc3)NC(=O)[C@@H](C)NC(=O)[C@H](CO)NC(=O)[C@H](Cc3c[nH]c4ccccc34)NC(=O)[C@H](Cc3ccc(-c4ccc(C(=O)O)cc4)cc3)NC(=O)CNC(=O)[C@@H](C)N(C)C(=O)[C@H](CC(=O)O)NC(=O)[C@H]([C@@H](C)c3cccc4ccccc34)NC(=O)[C@@H]3C[C@@H](N)CN3C(=O)CNC(=O)[C@H](Cc3ccc(C(=O)O)cc3)NC(=O)[C@H](Cc3c[nH]c4ccccc34)NC2=O)cc1 [Example 128] (cyclo([AEF](Ac)W[Phe(4-COOH)]G[Pro(4R-NH2)][1Nal(3S-Me)]D[dNMeA]G[Bip(4'-COOH)]WS[dA][hTyr]))
